Laboratory results reported in patent US11548923B2, “Peptide compositions and methods of use thereof for disrupting TEAD interactions” (Fred Hutchinson Cancer Center, priority 2017, dated 2023).
“Also recorded” adds a separate entry of the source. Where a SMILES comes first, the peptide text is derived from it. Bridges are numbered along the chain shown (N, C = ends).

What was measured:
TEAD [1] = molecular target: T1, TEAD (Homo sapiens, UniProt P28347); test: Mammalian surface display (SDGF vector, HEK-293 cells) TEAD-binding flow cytometry; conditions: for TEAD binding of cells displaying variant versus parent peptide: HEK-293 suspension cells transfected with SDGF constructs; for TEAD binding of HEK-293 cells expressing SDGF-peptide: stained with 200 nM AF647-Streptavidin-TEAD
T1 construct: GST; made in house; host or cells: Hi5 insect cells (baculovirus, BacMagic, pIEX-BAC3)
T1 sequence (P28347 209-426): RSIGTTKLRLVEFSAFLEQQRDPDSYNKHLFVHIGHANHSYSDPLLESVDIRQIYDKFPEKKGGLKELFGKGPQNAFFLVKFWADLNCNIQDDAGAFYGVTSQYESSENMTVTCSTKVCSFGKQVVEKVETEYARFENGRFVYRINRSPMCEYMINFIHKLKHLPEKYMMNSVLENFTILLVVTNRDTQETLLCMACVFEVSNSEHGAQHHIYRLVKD

biotinylated TEAD = molecular target: T2, biotinylated TEAD (Homo sapiens, UniProt P28347); test: Surface plasmon resonance (SPR) binding of soluble peptides to captured biotinylated TEAD; conditions: soluble peptides
T2 construct: GST; made in house; host or cells: Hi5 insect cells (baculovirus, BacMagic, pIEX-BAC3)
T2 sequence (P28347 209-426): as above

YAP-TEAD interaction = molecular target: T3, YAP-TEAD interaction (Homo sapiens, UniProt P28347); test: YAP-TEAD disruption co-immunoprecipitation (Myc-TEAD resin, FLAG-YAP lysate); format: biochemical; conditions: for FLAG-YAP pull-down with Myc-TEAD resin in the presence of peptide: Silver stain and Western blot
T3 construct: expressed in transfected cells; host or cells: 293T cells (lysates)
T3 sequence (P28347 whole entry): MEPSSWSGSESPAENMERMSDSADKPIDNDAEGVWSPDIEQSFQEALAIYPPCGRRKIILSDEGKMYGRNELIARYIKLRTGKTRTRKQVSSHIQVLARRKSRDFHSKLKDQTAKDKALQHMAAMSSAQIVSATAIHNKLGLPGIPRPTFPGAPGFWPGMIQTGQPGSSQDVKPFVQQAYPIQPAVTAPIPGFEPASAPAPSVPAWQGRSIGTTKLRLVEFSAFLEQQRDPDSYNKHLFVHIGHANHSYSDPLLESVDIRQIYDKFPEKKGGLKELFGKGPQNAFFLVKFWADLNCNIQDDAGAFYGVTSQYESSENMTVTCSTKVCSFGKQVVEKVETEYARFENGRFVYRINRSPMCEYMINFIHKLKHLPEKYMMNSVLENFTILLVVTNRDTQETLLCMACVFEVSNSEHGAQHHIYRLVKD

[2] = system: 8×GTIIC (TEAD luciferase reporter); test: Cytosolic peptide expression with 8×GTIIC TEAD luciferase reporter; format: cell-based; conditions: mCherry-T2a-peptide co-transfected with FLAG-YAP and 8×GTIIC; vs. YAP only
Excerpt: Cytosolic Peptide Expression. Peptides, FLAG-tagged or not, can be cloned into a mammalian expression vector consisting of a CMV promoter, then a monocistronic mCherry-T2a-peptide sequence. These can be transfected, along with (where indicated) pFLAG-YAP1 and 8×GTIIC-luciferase (Addgene plasmid #34615) into 293T cells. 24 hrs post-transfection, cells can be either harvested for luminescence (ONE-Glo, Promega) or Western blot (anti-FLAG M2, Sigma). Protein Transfection with dfTAT Reagent. Solution was diluted to 50 μM in PBS for a 10× working stock, for a final concentration of 5 μM in culture wells. […] For confirmation of peptide cell penetration, 293T and HeLa cells can be plated in a 96-well plate in DMEM with 10% FBS, 1× penicillin/streptomycin (Pen/Strep) and grown overnight to ˜50% confluence. Cells can be gently washed 3 times with PBS containing 1 mM CaCl2) and 0.5 mM MgCl2, then 2 times in serum-free DMEM. Wells (50 μL total) received either 5 μM (final) peptide in PBS, or PBS alone, and can also receive either 5 μM (final) dfTAT reagent in PBS, or PBS alone, before a 60 minute incubation at 37° C. and 5% CO2 in a humidified tissue culture incubator. After incubation, cells can be gently washed 3 times in PBS, which can be followed by fixation at 4° C. for 10 minutes with 4% formaldehyde in PBS. […]

TEAD [3] = molecular target: T1, TEAD; test: TEAD binding of SDGF-displayed peptides after exposure to reducing agent; conditions: 5 minutes, 20 nM TEAD
Experimental: Peptides of this disclosure were also tested to evaluate if binding to TEAD was affected by exposure of peptide to reducing conditions. […] Cultures were grown for two days followed by incubation in 10 mM GSH or 10 mM DTT. Finally, cells were stained with TEAD. FIG. 13 illustrates binding to TEAD after cells expressing SDGF-SEQ ID NO: 9 are exposed to a reducing agent. FIG. 13A illustrates a flow cytometry plot showing binding of HEK-293 suspension cells transfected with SDGF-SEQ ID NO: 1 (GFP) incubated for 5 minutes in PBS, 10 mM DTT, or 10 mM glutathione (GSH) before staining with 20 nM biotinylated TEAD and 20 nM AF647-streptavidin. FIG. 13B illustrates a flow cytometry plot showing binding of HEK-293 suspension cells transfected with SDGF-SEQ ID NO: 9 (GFP) incubated for 5 minutes in PBS, 10 mM DTT, or 10 mM glutathione (GSH) before staining with 20 nM biotinylated TEAD and 20 nM AF647-streptavidin.

YAP:TEAD dimers = molecular target: T4, YAP:TEAD dimers (Homo sapiens, UniProt P28347); test: YAP:TEAD proximity ligation assay (PLA) in HeLa cells; format: cell-based; conditions: 5 μM peptide with 5 μM dfTAT
T4 construct: endogenous in cells; host or cells: HeLa cells
T4 sequence (P28347 whole entry): as above
Experimental: Proximity Ligation Assay. […] HeLa cells can be seeded in an 8-well chamber slide (Nunc Lab-Tek II) in DMEM+10% FBS and 1× Pen/Strep, and can be grown overnight, reaching ˜50% confluence. Cells can be gently washed 3 times with PBS containing 1 mM CaCl2 and 0.5 mM MgCl2, then 2 times in serum-free DMEM. Wells (120 μL total) can receive either 5 μM (final) peptide in PBS, or PBS alone, and can also receive either 5 μM (final) dfTAT reagent in PBS, or PBS alone, before a 90 minute incubation at 37° C. and 5% CO2 in a humidified tissue culture incubator. After incubation, cells can be gently washed 3 times in PBS, followed by fixation at 4° C. for 10 minutes with 4% formaldehyde in PBS. […]
PLA can be performed using the Duolink In Situ Fluorescence (Far Red) kit according to manufacturer's instructions, using supplied buffers without substitution and at recommended volumes for 1 cm^2 samples. […] For quantitation of nuclear speckles in ImageJ, UV and Cy5.5 filtered images can be Z-projected (maximum intensity), and can be processed using a custom macro to identify nuclear boundaries (UV channel) and speckles (Cy5.5 channel). […]
Proximity ligation assay (PLA) in HeLa cells was performed using primary antibodies against YAP and TEAD, in which speckles (APC channel) overlapping DAPI-stained nuclei (UV channel) were produced. […] All P-values were determined by two-tailed T-test.

[4] = molecular target: T5, TEAD binding to surface-displayed YAP (Homo sapiens, UniProt P28347); test: Competitive binding of peptides to TEAD versus cell surface-displayed YAP (flow cytometry)
T5 construct: made in house; host or cells: TEAD: Hi5 insect cells
T5 sequence (P28347 209-426): as the sequence (P28347 209-426) above
Experimental: FIG. 11D illustrates a flow cytometry plot of cells expressing SDGF-YAP that were incubated with 5 nM TEAD and then washed. Cells were immediately stained with AF647-streptavidin and analyzed for YAP-expressing cells that have bound TEAD. FIG. 11E illustrates a flow cytometry plot of cells expressing SDGF-YAP that were incubated with 5 nM TEAD and then washed. Cells were incubated on ice for 1 hour, stained with AF647-streptavidin and analyzed for YAP-expressing cells that have bound TEAD. FIG. 11F illustrates a flow cytometry plot of cells expressing SDGF-YAP that were incubated with 5 nM TEAD and then washed. […] FIG. 11G illustrates a flow cytometry plot of cells expressing SDGF-YAP that were incubated with 5 nM TEAD and then washed.

GSPDEYIERAKECCKKGDIQCCLRYFAESGDPNVMLICLFCP [SEQ ID NO: 4]
TEAD binding of cells displaying variant versus parent peptide (TEAD [1]): loss of binding to TEAD

GSPDEYIERAKECCKKQDIQCCLRIFDESKDPNVMLICLFCP [SEQ ID NO: 11]
TEAD binding with the extra wash step (TEAD [1]; 20 nM TEAD, Extra Wash protocol): diminished binding

GSLERLKKSSNQGLDSEEARWKSELEALFQGKNRETSLEES [SEQ ID NO: 185]
TEAD binding of cells displaying variant versus parent peptide (TEAD [1]): loss of binding to TEAD

CC[C@H](C)[C@@H]1NC(=O)[C@H](C)NC(=O)[C@H](CO)NC(=O)[C@@H]2CSSC[C@@H]3NC(=O)[C@H](CCC(N)=O)NC(=O)[C@H](CC(N)=O)NC(=O)[C@H](CC(N)=O)NC(=O)[C@H](CCC(N)=O)NC(=O)[C@H](CSSC[C@H](NC(=O)[C@H](CCC(N)=O)NC(=O)[C@H](CC(N)=O)NC(=O)[C@H](CC(=O)O)NC(=O)[C@H](Cc4ccc(O)cc4)NC(=O)[C@H](CC(C)C)NC(=O)CNC(=O)[C@H](Cc4ccccc4)NC(=O)[C@H](CO)NC(=O)CN)C(=O)N[C@@H](C)C(=O)N[C@@H]([C@@H](C)O)C(=O)N[C@@H](CO)C(=O)N[C@@H](CC(=O)O)C(=O)N[C@@H](C)C(=O)N2)NC(=O)[C@H](CCCCN)NC(=O)CNC(=O)[C@H](CCC(N)=O)NC(=O)CNC(=O)[C@H](CO)NC(=O)CNC(=O)[C@H]([C@@H](C)O)NC(=O)[C@H](Cc2c[nH]c4ccccc24)NC(=O)[C@H](Cc2ccc(O)cc2)NC(=O)[C@H](CCCCN)NC(=O)[C@H](CSSC[C@@H](C(=O)N[C@@H](Cc2ccc(O)cc2)C(=O)O)NC(=O)[C@H](CCCNC(=N)N)NC3=O)NC1=O [SEQ ID NO: 3] (H-GSFGLYDNQCATSDACSAICKYWTGSGQGKCQNNQCRCY-OH; disulfide 10-31, 16-36, 20-38)
affinity/binding to TEAD as compared to a peptide of SEQ ID NO: 1 (biotinylated TEAD): lower binding affinity for TEAD | TEAD binding of HEK-293 cells expressing SDGF-peptide (TEAD [1]): displayed binding to TEAD

GSLERLKKCCNQGLDCEEARWKCELEALAQGKNRETCLEEC [SEQ ID NO: 42]
TEAD binding of cells displaying variant versus parent peptide (TEAD [1]): loss of binding to TEAD

GSPDEYIERAKECCKKGDIQCCLRYFEESGDPNVMLICLACP [SEQ ID NO: 7]
affinity/binding to TEAD as compared to a peptide of SEQ ID NO: 1 (biotinylated TEAD): reduced affinity for TEAD | TEAD binding of cells displaying variant versus parent peptide (TEAD [1]): loss of binding to TEAD | FLAG-YAP pull-down with Myc-TEAD resin in the presence of peptide (YAP-TEAD interaction): not pulled down

GSPDEYIERAKECCKKGDIQCCLRYFEESGDPNVALICLFCP [SEQ ID NO: 6]
TEAD binding of cells displaying variant versus parent peptide (TEAD [1]): loss of binding to TEAD

GSPDEYIERAKECCKKGDIQCCLRIFDESKDPNVMLICLFCW [SEQ ID NO: 12]
TEAD luciferase reporter activity (relative luminescence units) [2]: reduced

GSPDEYIERAKECCKKGDIQCCLRYFEESGDPNVMLICLFCP [SEQ ID NO: 1]
TEAD binding profile of displayed peptide (TEAD [1]; 20 nM TEAD concentration and 2-step staining): apparent but weak | TEAD binding of HEK-293 cells expressing SDGF-peptide (TEAD [1]): displayed binding to TEAD | FLAG-YAP pull-down with Myc-TEAD resin in the presence of peptide (YAP-TEAD interaction): not pulled down | inhibition of FLAG-YAP binding to Myc-TEAD resins (YAP-TEAD interaction; dilution series of peptide, Western blot): dose-dependent inhibition | binding to TEAD after reducing agent treatment (TEAD [3]; 10 mM DTT): partial loss in binding to TEAD | binding to TEAD after reducing agent treatment (TEAD [3]; 10 mM GSH): no loss in binding to TEAD

GSLERLKKCCNQGLDCEEARWKCELEALFQGKNRETCLEEC [SEQ ID NO: 2]
TEAD binding of HEK-293 cells expressing SDGF-peptide (TEAD [1]): displayed binding to TEAD

GSLERLKKCCNQGLDCEEARWKCELEAAFQGKNRETCLEEC [SEQ ID NO: 41]
TEAD binding of cells displaying variant versus parent peptide (TEAD [1]): loss of binding to TEAD

GSLERLKKCCNQGLDCEEARWKCEAEALFQGKNRETCLEEC [SEQ ID NO: 40]
TEAD binding of cells displaying variant versus parent peptide (TEAD [1]): loss of binding to TEAD

GSPDEYIERAKECCKKQDIQCCLRIFDESKDPNVMLICLFCW [SEQ ID NO: 9]
YAP:TEAD PLA speckles per nucleus (YAP:TEAD dimers): significantly reduces YAP:TEAD dimers in the nucleus; also recorded: significantly reduced | TEAD binding to YAP-displaying cells ([4]; YAP-displaying cells first incubated with TEAD prior to addition of peptide): near complete elimination of TEAD binding to YAP | TEAD binding to YAP-displaying cells ([4]; cells incubated with peptide, then 5 nM TEAD): near complete elimination of TEAD binding to YAP | mean fluorescence intensity (MFI) of TEAD staining normalized to SEQ ID NO: 1 (TEAD [1]; 20 nM TEAD, Normal and Extra Wash protocols): performed the best | binding to TEAD after reducing agent treatment (TEAD [3]; 10 mM DTT): no loss in binding to TEAD | binding to TEAD after reducing agent treatment (TEAD [3]; 10 mM GSH): no loss in binding to TEAD

GSPDEYIERAKECCKKGDIQCCLRYFEESGDPNVMLICAFCP [SEQ ID NO: 5]
affinity/binding to TEAD as compared to a peptide of SEQ ID NO: 1 (biotinylated TEAD): reduced affinity for TEAD | TEAD binding of cells displaying variant versus parent peptide (TEAD [1]): marginal loss of binding to TEAD

GSPDEYIERAKESSKKGDIQSSLRYFEESGDPNVMLISLFSP [SEQ ID NO: 184]
TEAD binding of cells displaying variant versus parent peptide (TEAD [1]): loss of binding to TEAD
